Assays:
A2780 = assay: Proliferation assay A2780; format: cell-based; details: Homo sapiens, 96 h; A2780, ovarial carcinoma; 4 days, crystal violet
Protocol: Cultivated human tumor cells (originally obtained from ATCC, HeLa-MaTu and HeLa-MaTu-ADR, originally obtained from Epo GmbH, Berlin, Germany) were plated at a density of 1000 to 5000 cells/measuring point, depending on the growth rate of the cell line, in a 96-well multititer plate in 200 μl of growth medium (DMEM/HAMS F12, 2 mM L-glutamine, 10% fetal calf serum). After 24 hours the cells of one plate (zero-point plate) were stained with crystal violet (see below), whereas the medium of the other plates was replaced with fresh culture medium (200 μl), to which the test substances had been added at various concentrations (0 μM, and in the range 0.01-30 μM; the final concentration of the solvent dimethyl sulfoxide was 0.5%). The cells were incubated for 4 days in the presence of the test substances. Cellular proliferation was determined by staining the cells with crystal violet: the cells were fixed by adding 20 μl/measuring point of an 11% glutaraldehyde solution for 15 min at room temperature. […] The extinction was determined photometrically at a wavelength of 595 nm. The percentage change in cell growth was calculated by standardization of the measured values to the extinction values of the zero-point plate (=0%) and the extinction of the untreated (0 μM) cells (=100%). […] The IC50 values were determined by means of a 4-parameter fit using the company's own software. […]

[1] = system: NCI-H526 human small-cell lung tumor cells; assay: NCI-H526 human small-cell lung tumor model; format: in vivo, female NMRI nude mice
From the text: (§1) Tumor cells grown in cell culture were implanted subcutaneously in the flank of female or male NMRI nude mice. The treatment was started as soon as the tumors had grown to a size of approx. 20 mm^2 The study was ended as soon as the tumors in one of the groups reached a size of approx. 150 mm^2.
(§2) Vehicle group: treatment with solubilizer (40% PEG400/60% water)
(§3) The studies were designed for determining the initial response of the human tumor model to the treatment with the Exemplary compound 2-SI-2. Tumor growth inhibition in percent (TGI) was either calculated at the end of the studies from the tumor weights (TGITW) using the formula 100×[1−(tumor weight of the treatment group/tumor weight of the vehicle group)], or on the day the vehicle group had to be ended from the tumor areas (TGITA) using the formula 100×[1−(tumor area of the treatment group on the day of the measurement−tumor area of the treatment group prior to treatment)/(tumor area of the vehicle group on the day of the measurement−tumor area of the vehicle group prior to treatment)]. In the case of a tumor growth inhibition of more than 50%, the treatment was considered to have been effective.
Efficacy in the NCI-H526 human small-cell lung tumor model.
NCI-H526 human small-cell lung tumor cells implanted into female NMRI nude mice.
• a) 0.20 mg/ml of Example 2-SI-2 in 40% (v/v) PEG 400 in water • b) 0.20 mg/ml of Example 2-SI-2 in 40% (v/v) PEG 400 in water • c) 0.15 mg/ml of Example 2-SI-2 in 40% (v/v) PEG 400 in water • d) 0.17 mg/ml of Example 2-SI-2 in 40% (v/v) PEG 400 in water
• a) 2.0 mg/kg (6.0 mg/m^2), 1× per day. • b) 2.0 mg/kg (6.0 mg/m^2), 2× per day on 2 successive days, followed by 5 treatment-free days. • c) 1.5 mg/kg (4.5 mg/m^2), 2× per day on 3 successive days, followed by 4 treatment-free days. • d) 1.7 mg/kg (5.1 mg/m^2), 2× per day on 3 successive days, followed by 4 treatment-free days.

[2] = system: HeLa-MaTu-ADR multidrug-resistant human cervix carcinoma cells; assay: HeLa-MaTu-ADR Res. xenograft model; format: in vivo, female NMRI nude mice
From the text: as §1, §2, §3
Efficacy in the HeLa-MaTu-ADR Res. xenograft model
HeLa-MaTu-ADR multidrug-resistant human cervix carcinoma cells implanted into female NMRI nude mice.
Formulation • a) 0.15 mg/ml, 0.20 mg/ml of Example 2-SI-2 in 40% (v/v) PEG 400 in water • b) 0.20 mg/ml, 0.25 mg/ml of Example 2-SI-2 in 40% (v/v) PEG 400 in water
• a) 1.5 and 2.0 mg/kg (4.5 and 6.0 mg/m^2), 1× per day • b) 2.0 and 2.5 mg/kg (6.0 and 7.5 mg/m^2), 2× per day on 2 successive days, followed by 5 treatment-free days

[3] = system: NCI-H82 human small-cell lung tumor cells; assay: NCI-H82 human small-cell lung tumor model; format: in vivo, female NMRI nude mice; details: NCI-H82; a) 1.7 mg/kg oral 2× per day on 3 successive days, followed by 4 treatment-free days
From the text: as §1, §2, §3
Efficacy in the NCI-H82 human small-cell lung tumor model.
NCI-H82 human small-cell lung tumor cells implanted into female NMRI nude mice.
• a) 0.17 mg/ml of Example 2-SI-2 in 40% (v/v) PEG 400 in water […]

[4] = HeLa-MaTu-ADR; b) 2.5 mg/kg oral 2× per day on 2 successive days, followed by 5 treatment-free days

| IC50 (A2780) | SMILES | TGITW (tumor growth inhibition from tumor weights) ([1]; NCI-H526; a) 2.0 mg/kg oral 1× per day) | TGITW (tumor growth inhibition from tumor weights) ([1]; NCI-H526; b) 2.0 mg/kg oral 2× per day on 2 successive days, followed by 5 treatment-free days) | TGITW (tumor growth inhibition from tumor weights) ([1]; NCI-H526; c) 1.5 mg/kg oral 2× per day on 3 successive days, followed by 4 treatment-free days) | TGITW (tumor growth inhibition from tumor weights) ([1]; NCI-H526; d) 1.7 mg/kg oral 2× per day on 3 successive days, followed by 4 treatment-free days) | TGITW (tumor growth inhibition from tumor weights) ([2]; HeLa-MaTu-ADR; a) 2.0 mg/kg oral 1× per day) | TGITW (tumor growth inhibition from tumor weights) [2, 4] | tumor regression observation [2, 4] | TGITW (tumor growth inhibition from tumor weights) [3] |
| --- | --- | --- | --- | --- | --- | --- | --- | --- | --- |
| 3 nM | C[C@@H](O)[C@@H](C)Oc1nc(Nc2ccc(S(C)(=N)=O)cc2)ncc1C(F)(F)F (single isomer, unassigned) [Example 2-SI-2] |  |  |  |  |  |  |  |  |
|  | C[C@@H](O)[C@@H](C)Oc1nc(Nc2ccc(S(C)(=N)=O)cc2)ncc1C(F)(F)F (mixture of isomers) [Example 2-SI-2, (RS)—S-(4-{[4-{[(1R,2R)-2-Hydroxy-1-methylpropyl]oxy}-5-(trifluoromethyl)pyrimidin-2-yl]-amino}phenyl)-S-methylsulfoximide] | 98% | 72% | 79% | 88% | 97% | 90% | signs of tumor regression | 86% |

Source: patent US20130210846A1, “USE OF NOVEL PAN-CDK INHIBITORS FOR TREATING TUMORS” (BAYER INTELLECTUAL PROPERTY GMBH, priority 2010, published 2013)
